Measured values as given in patent publication US6046238A, “Method for treating or preventing the spread of acne vulgaris” (TriStrata, Inc., priority 1999, dated 2000).
Converted amounts (≈) assume the structure as drawn. Like-named read-outs stand apart in the source and are kept apart here.

How the values were obtained:
[1] = test system: Staphylococcus aureus; test: MIC Agar Dilution Test, Staphylococcus aureus; type: cell-based; details: S. aureus
From the text: (§1) The following strains of microorganisms were used in Minimum Inhibitory Concentration (MIC) tests for phenyl 2-acetoxyethanoic acid in this example and for benzoyl peroxide, chlorhexidine gluconate and triclosan in the following examples. In total, five strains were used for S. aureus, five strains were used for S. epidermidis, two strains were used for M. sedentarius, three strains were used for M. luteus, two strains were used for B. epidermis, three strains were used for C. minutissium, one strain was used for S. marcescens, three strains were used for P. aeruginosa, four strains were used for E. coli, and thirty-two strains were used for P. acnes.
(§2) Antimicrobial effects were determined based on MIC Agar Dilution Test utilizing Trypticase Soy Agar II (BBL) incorporation plates with and without 10% intralipid (Kabi Pharmacia Inc.). Initially, phenyl 2-acetoxyethanoic acid was prepared as a 2 mg/ml (0.2%) solution in water. This solution with serial dilution was incorporated into the test agar plates. The MIC test gave similar results when the same species but a different strain was used.
(§3) Under the same test conditions described in Example 1, benzoyl peroxide was prepared as a 2.5 mg/ml (0.25%) solution in water. This solution with serial dilution was incorporated into the test agar plates. Typical test results are shown as follows.
(§4) Under the same test conditions described in Example 1, chlorhexidine gluconate was prepared as a 2 mg/ml (0.2%) solution in water. This solution with serial dilution was incorporated into the test agar plates. Typical test results are shown as follows.
(§5) Under the same test conditions described in Example 1, triclosan was prepared as a 10 mg/ml (1%) solution in water. This solution with serial dilution was incorporated into the test agar plates. Typical test results are shown as follows.
(§6) Ten different species of bacteria were used in Minimum Inhibitory Concentration (MIC) tests. The bacteria include S. aureus, S. epidermidis,M. sedentarius, M. luteus, B. epidermis, C. minutissium, S. marcescens, P. aeruginosa, E. coli, and P. acnes. In addition various sources and strains of these bacteria were also included in the tests, and up to 32 different strains of P. acnes were used.
(§7) The test substance selected from phenyl 2-acetoxyethanoic acid, benzoyl peroxide, chlorhexidine gluconate and triclosan was dissolved in water, and the solution with serial dilution was incorporated into the test agar plates. The plates containing different concentrations of test substance were inoculated with a strain of bacterium. MIC is defined as the lowest concentration of the test substance in the plate in which there is no growth of the microorganism.

[2] = test system: Micrococcus sedentarius; test: MIC Agar Dilution Test, Micrococcus sedentarius; type: cell-based; details: Kytococcus sedentarius, M. sedentarius
From the text: as §1, §2, §3, §4, §5, §6, §7

[3] = test system: Pseudomonas aeruginosa; test: MIC Agar Dilution Test, Pseudomonas aeruginosa; type: cell-based; details: P. aeruginosa
From the text: as §1, §2, §3, §4, §5, §6, §7

[4] = topical treatment of nail infections; type: in vivo, human; details: non-synergistic composition, twice daily
From the text: The participating subjects in the present study were instructed to apply twice daily the composition containing phenyl 2-acetoxyethanoic acid or diphenyl 2-acetoxyethanoic acid with or without clotrimazole as an additional antimicrobial agent.
In order to determine the antimicrobial effect of an aryl 2-acetoxyethanoicacid, a standard test method of Minimum Inhibitory Concentration (MIC) against the growth of 10 bacteria was used. To determine a prophylactic effect against the development of, as well as a topical effect in the treatment of, body foul door, eleven human subjects participated in this study. […] Scientific and test results are overviewed as follows.

[5] = 10% intralipid, read-out: MIC Lipid
[6] = no lipid, read-out: MIC No Lipid

## CC(=O)OC(C(=O)O)c1ccccc1 (stereo not shown) [phenyl 2-acetoxyethanoic acid]
[1]; [5]
  MIC: 500 µg/mL (≈ 2570 µM)
[1]; [6]
  MIC: 500 µg/mL (≈ 2570 µM)
[2]; [5]
  MIC: 500 µg/mL (≈ 2570 µM)
[2]; [6]
  MIC: 500 µg/mL (≈ 2570 µM)
[3]; [5]
  MIC: 1000 µg/mL (≈ 5150 µM)
[3]; [6]
  MIC: 1000 µg/mL (≈ 5150 µM)
[4]
  disappearance of nail infections: usually disappeared within one to several months
